Results reported in PMC6691587, “New CXCR1/CXCR2 inhibitors represent an effective treatment for kidney or head and neck cancers sensitive or refractory to reference treatments” (Theranostics, 2019).
“Also recorded” adds a separate entry of the source. Read-outs that look alike come from different tables or passages of the source.

Tests used:
[1] = tested on: panel of human tumor cell lines; experiment: XTT screening on a panel of tumor cell lines; type: cell-based; settings: Homo sapiens; read-out: IC50 values for several cancer cell lines
Procedure: (§1) Fifty microliters of sodium 3′-[1-phenylaminocarbonyl)-3,4-tetrazolium]-bis(4-methoxy-6-nitro) benzene sulfonic acid hydrate (XTT) reagent was added to each well. The assay is based on the cleavage of the yellow tetrazolium salt XTT to form an orange formazan dye by metabolically active cells. This bio-reduction occurs in viable cells only and is related to NAD(P)H production through glycolysis. Therefore, the amount of formazan dye measured at 490 nm directly correlated with the number of metabolically active cells reflecting cell proliferation and viability. Each assay was performed in quadruplicate.

786-O cells = experiment: Ectopic model of RCC (786-O xenograft); type: in vivo, nude (nu/nu) female mice; settings: C29 100 µg i.p. three per week; danirixin 200 µg three times a week; sunitinib 50 mg/kg oral gavage five times a week
Procedure: These studies were carried out in strict accordance with the recommendations in the Guide for the Care and Use of Laboratory Animals. Our experiments were approved by the ''Comité National Institutionnel d'Ethique pour l'Animal de Laboratoire'' (reference: PEA-255 and PEA-277). Cells were injected subcutaneously into the flank of 5-week-old nude (nu/nu) female mice (Janvier). When the tumor reached 100 mm^3, mice were treated. The tumor volume was determined with a caliper (v = L*l2*0.5).
2- Seven million 786-O cells were injected subcutaneously.

[2] = tested on: ERK/MAP Kinase signaling pathway; experiment: p-ERK immunoblotting in HuVEC; type: cell-based, human; settings: 5 µM C29 1 h, CXCL5 50 ng/ml 10 min
Procedure: Cells were lysed in buffer containing 3% SDS, 10% glycerol and 0.825 mM Na2HPO4. 30 to 50 μg of proteins separated on 10% SDS-PAGE, transferred onto a PVDF membrane and then exposed to the appropriate antibodies. Proteins were visualized with the ECL system using horseradish peroxidase-conjugated anti-rabbit or anti-mouse antibodies.

caspase 3 = experiment: Caspase 3 activity assay; type: cell-based, human; settings: 786, 786R, CAL27, CAL27R; 2.5 and 5 µM, 48 h
Procedure: Caspase assays have already been described. Briefly, the caspase 3 activity was assessed in quadruplicate using z-DEVD-AMC as substrate and the fluorescence were assessed.

[3] = Hematological, renal and hepatic toxicity; type: in vivo
HuVEC = experiment: Boyden chamber migration assay; type: cell-based, human; settings: CXCL7 50 ng/ml, 2.5 µmol/L compound
Procedure: CXCL7 or VEGFA-stimulated chemotaxis assays were monitored using modified Boyden chambers containing polycarbonate membranes (8-μm pores, Transwell; Corning, Sigma). Cells were seeded onto the upper side of the filters and chambers were placed on 24-well plates containing CXCL7 (50ng/ml) or VEGFA (50ng/ml). Cell migration was followed for 24 h at 37°C in 5% CO2. Migratory cells on the lower membrane surface were fixed in 3% paraformaldehyde, stained with 0.1% crystal violet.

SKM1 = experiment: XTT cell viability assay, SKM1 MDS cells; type: cell-based, human; settings: Homo sapiens, SKM-1, 48 h, SD 10%, mean of three experiments, read-out: IC50 SK (MDS)
How it was run: (§2)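 Quadruplicate wells were treated with XTT reagent, and the resulting formazan dye, produced only by metabolically active cells, was measured at 490 nm to reflect proliferation and viability.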

[4] = In vitro (in cellulo) stability assay; type: in vitro ADME, human; settings: 786-O cells, 2.5 µM, 24 h at room temperature, UPLCMS/MS
Procedure: The in vitro stability was determined as followed: 786-O cells were treated with 2.5 µM of compound C29 for the defined time, then lysed with methanol. The lysates were filtered and analyzed by UPLCMS/MS.

Molm14 = experiment: XTT cell viability assay, Molm14 AML cells; type: cell-based, human; settings: Homo sapiens, MOLM-14, 48 h, SD 10%, mean of three experiments
How it was run: as §2

CAL27 = experiment: XTT cell viability assay, CAL27 HNSCC cells; type: cell-based, human; settings: for IC50: Homo sapiens, CAL-27
How it was run: as §2

MDA-MD-231 = experiment: XTT cell viability assay, breast cancer cells; type: cell-based, human; settings: Homo sapiens, 48 h, SD 10%, mean of three experiments
How it was run: as §2

786-O = experiment: XTT cell viability assay, 786-O RCC cells; type: cell-based, human; settings: for IC50: Homo sapiens, 786-0
How it was run: as §2

CXCR2 = target: T1, CXCR2 (Homo sapiens, UniProt P25025); experiment: Membrane-associated CXCR2 level in HuVEC by flow cytometry; type: cell-based; settings: CXCL8 25 ng/ml 1 h, C29 2.5 µmol/L
T1 construct: CXCR1/2 are expressed on endothelial cells and participate in ELR^+CXCL-mediated angiogenesis; endogenous in cells; host or cells: HuVEC
T1 sequence (P25025 whole entry): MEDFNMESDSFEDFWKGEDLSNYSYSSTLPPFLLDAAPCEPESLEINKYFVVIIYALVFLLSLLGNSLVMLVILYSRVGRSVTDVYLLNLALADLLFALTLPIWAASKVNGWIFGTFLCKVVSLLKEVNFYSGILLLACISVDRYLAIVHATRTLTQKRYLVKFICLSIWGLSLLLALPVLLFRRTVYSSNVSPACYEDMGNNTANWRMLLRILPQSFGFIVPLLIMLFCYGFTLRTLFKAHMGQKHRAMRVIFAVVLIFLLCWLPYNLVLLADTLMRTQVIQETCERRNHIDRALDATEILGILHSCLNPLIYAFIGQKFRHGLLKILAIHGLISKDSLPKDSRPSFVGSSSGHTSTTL
Procedure: CXCR2 measurement: After stimulation, cells were washed with PBS and stained with the CXCR2-PE antibody (Miltenyi) for 30 min at room temperature. Fluorescence was measured using the FL2 (PE) channels of a fluorescence-activated cell sorter apparatus (Calibur cytometer).

[5] = tested on: primary kidney tumor cells (CC); experiment: Cell viability, primary kidney tumor cells CC; type: cell-based
Procedure: as §1
For the experiments with C29, we confirmed all the results by evaluating the cell viability. Cell viability and cell death was assessed using the ADAM-MC apparatus (NanoEnTek, Guro-gu, Seoul, Korea) based on fluorescent propidium iodide staining according to the manufacturer's instructions.
To determine the selectivity of the activity of the substances tested, the selectivity index (SI) was calculated according to the equation previously described where SI = IC50 of a compound in a normal cell line/IC50 of the same compound in cancer cell line. The IC50 is the concentration required to kill 50% of the cell population.

CAL33 = experiment: XTT cell viability assay, CAL33 HNSCC cells; type: cell-based, human; settings: for IC50: Homo sapiens, CAL-33
How it was run: as §2

[6] = tested on: cisplatin-resistant CAL27 cells (CAL27R); experiment: XTT cell viability assay, cisplatin-resistant CAL27 cells; type: cell-based, human; settings: 1 to 10 µM 48 h, 2.5 µM 24 to 96 h
Procedure: as §1

[7] = C29 100mg/kg oral gavage, three weeks, ns vs CT
[8] = XTT, 1 to 10 µM 48 h, 2.5 µM 24 to 96 h

## O=C(Nc1cccc(Cl)c1)Nc1nc2ccc([N+](=O)[O-])cc2s1 [C29]
[1]
  IC50: < 20000 nM
786-O cells
  efficacy on tumor growth, 786-O xenograft: as efficient as a dose of 50 mg/kg administered by oral gavage
[2]
  basal and CXCL5-dependent ERK/MAP Kinase signaling (p-ERK): inhibition
Caspase 3
  caspase 3 activity: increase
[3]; 100mg/kg by oral gavage five times a week for three weeks
  hematological, renal or hepatic toxicity: did not induce hematological, renal or hepatic toxicity
[3]; [7]
  Basophils: 0.07089 ± 0.02 k/µl
  Eosinophils: 0.1760 ± 0.04 k/µl
  Hematocrit: 26.22 ± 2.45%
  Hemoglobin: 14.67 ± 1.22 g/dL
  Leucocytes: 4.239 ± 0.60 k/µl
  Lymphocytes: 2.943 ± 0.38 k/µl
  Mean Corpuscular Volume: 112.0 ± 1.054 fL
  Mean corpuscular hemoglobin: 31.46 ± 0.79 pg
  Mean platelet volume: 12.81 ± 0.08 fL
  Monocytes: 0.2664 ± 0.04 k/µl
  Neutrophils: 0.6760 ± 0.11 k/µl
  Platelets: 375.7 ± 77.93 k/µl
  Red blood cells: 10.33 ± 0.98 M/µl
HuVEC
  CXCL7-dependent migration of HuVECs: decreased
SKM1
  IC50: 5000 nM
[4]
  stability in cellulo (degradation): No degradation; also recorded: absence of degradation
Molm14
  IC50: 4000 nM
CAL27; CXCR1+/CXCR2+, read-out: IC50 CAL27
  IC50: 2500 nM
CAL27; XTT assay, 48 h, SD 10%, mean of three experiments, read-out: IC50 27 (HNSCC)
  IC50: 2500 nM
CAL27; SI = IC50 in normal cells (15S)/IC50 in CAL27
  Selectivity index CAL27: 5
CAL27; [8]
  effect on CAL27 HNSCC cell viability compared with cisplatin: greater than that of cisplatin
MDA-MD-231
  IC50: 2500 nM
786-O; CXCR1+/CXCR2+, read-out: IC50 786-O
  IC50: 2000 nM
786-O; XTT assay, 48 h, SD 10%, mean of three experiments, read-out: IC50 786 (Kidney RCC)
  IC50: 2000 nM
786-O; SI = IC50 in normal cells (15S)/IC50 in 786-O
  Selectivity index 786-O: 6.25
786-O; [8]
  viability of sensitive 786-O RCC cells compared with sunitinib: as efficiently as sunitinib
CXCR2
  CXCR2 levels at the plasma membrane: increased
[5]; CXCR1+/CXCR2+
  IC50: 2000 nM
[5]; Figure S8A-B
  proliferation of primary kidney tumor cells CC: significantly decreased
[5]; SI = IC50 in normal cells (15S)/IC50 in CC
  Selectivity index CC: 6.25
CAL33; CXCR1+/CXCR2+, read-out: IC50 CAL33
  IC50: 4000 nM
CAL33; XTT assay, 48 h, SD 10%, mean of three experiments, read-out: IC50 33 (HNSCC)
  IC50: 4000 nM
CAL33; SI = IC50 in normal cells (15S)/IC50 in CAL33
  Selectivity index CAL33: 3.13
[6]
  effect on cisplatin-resistant CAL27 cell viability: equivalent
